pEC50: −log10 of the molar value. Where a name gives a salt, the structure may show the parent alone.
Tests used:
[1] = test system: neurons derived from D3 embryonic stem (ES) cells; assay: Chemical ischemia-induced neuronal death and neuroprotection, cell culture model; type: cell-based, mouse; settings: for pEC50: Mus musculus, Neuron, read-out: EC50 of neuroprotective effect, chemical ischemia; for neuroprotective effect compared between compounds: each 1 μM, FIG. 3
Description: (§1) For all experiments, D3 embryonic stem (ES) cells derived from 129/sv mice [Okabe et al., 1996] were cultivated for 12 days, with passages on days 2, 4, 7 and 9 as described previously [Sommer et al., 2004]. Insult conditions: Cells (24-well plates) were pre-incubated with or without 20 nM EPO (neuroprotective agent, positive control) in fresh medium for 24 hours at 37° C. Cells were rinsed once with low K^+ solution (140 mM NaCl, 4.7 mM KCl, 1.2 mM KH2PO4, 2.5 mM CaCl2, 1.2 mM MgSO4, 11 mM glucose, 15 mM Hepes-NaOH, pH 7.35). Cells (either with or without EPO pre-incubation) were incubated for up to 45 min (37° C.) with either low K^+ solution or with glucose-free low K^+ solution supplemented with 1 mM KCN chemical ischemia solution [Kume et al., 2002, Schrattenholz et al., 2005]. This insult relates to ischemic conditions in stroke. In addition similar cellular insults were established using glutamatergic agonists to induce excitotoxicity (Sommer et al., 2004) and respective neuroprotection related to stroke and epilepsy; and β-amyloid induced toxicity (incubation of neurons with 10 μM β-amyloid1-40 for 10 min, resulting in Ca-influx and neuronal death) and respective rescue related to Alzheimer's disease. Vitality control to assess numbers of surviving neurons was performed in all of these cases by a brief stimulation with a low dose of glutamate (10 μM). Afterwards, cells were washed three times with ice cold phosphate buffered saline (PBS), and then proteins were harvested. Suspended cells were pelleted at 500×G, and lysed into 9M urea 4% CHAPS. The cell lysate was desalted with a NAP-10 column (Amersham Biosciences), preequilibrated with the same buffer, and protein content was determined.
Functional tests by calcium imaging were performed essentially as described [Sommer et al., 2004]. Briefly, cells were loaded with 2 μM of fura-2 AM in DMEM for 45 min at 37° C. in the dark. Measurements of relative changes in [Ca^2+] were made on an inverted epifluorescence microscope (Olympus IX70 S1F2) with a Polychrom IV Monochromator (Xe-lamp, USHIO). Excitation wavelengths (λ1, λ2) and the emission wavelength were 340, 380 and 510 nm, respectively. Acquisition and analysis of data after appropriate stimulation were performed by using MetaFluor software (Universal Imaging Corporation). Image resolution was 168×129 pixels (binning 8×8, pixel size 6.8×6.8 μm). Only cells identified as neurons by morphological criteria and occasional immunostaining (not shown) and those whose calcium levels returned to the resting state after the first stimulation were taken into account. Controls included nominal zero calcium (negative) and 5 μM ionomycin (positive), 10 μM glutamate (positive) and depolarisation (55 mM K+) (positive). Pharmacological agents were applied by a multi-valve, single-output focal drug application device (ALA Scientific) with the perfusion system DAD-12. […] During each stimulation event 20 image pairs were acquired.

[2] = test system: neurons derived from D3 embryonic stem (ES) cells; assay: Excitotoxic paradigm (100 μM NMDA), neuroprotection in cell culture model; type: cell-based
Description: as §1
(§2) Functional tests by calcium imaging were performed essentially as described [Sommer et al., 2004]. Briefly, cells were loaded with 2 μM of fura-2 AM in DMEM for 45 min at 37° C. in the dark. Measurements of relative changes in [Ca^2+] were made on an inverted epifluorescence microscope (Olympus IX70 S1F2) with a Polychrom IV Monochromator (Xe-lamp, USHIO). Excitation wavelengths (λ1, λ2) and the emission wavelength were 340, 380 and 510 nm, respectively. Acquisition and analysis of data after appropriate stimulation were performed by using MetaFluor software (Universal Imaging Corporation). Image resolution was 168×129 pixels (binning 8×8, pixel size 6.8×6.8 μm). Only cells identified as neurons by morphological criteria and occasional immunostaining (not shown) and those whose calcium levels returned to the resting state after the first stimulation were taken into account. Controls included nominal zero calcium (negative) and 5 μM ionomycin (positive), 10 μM glutamate (positive) and depolarisation (55 mM K+) (positive). […]

[3] = test system: neurons derived from D3 embryonic stem (ES) cells; assay: β-amyloid-induced neuronal death (10 μM Aβ1-40), rescue in cell culture model; type: cell-based
Description: as §1, §2

[4] = test system: mitochondrial permeability transition pore (MPTP); assay: Functional test of the MPTP by Rhodamine-123 assay; type: cell-based, mouse; settings: for inhibition of release of Rhodamine-123 from mitochondria after opening of the MPTP: 0.5, 1, 10, 20 μM, FIG. 6
Description: Ant1 is one of the essential components of the MPTP, and thus was tested functionally by a fluorescent assay described by Metzger et al. (Metzger et al. Optical assessment of motoneuron function in a “twenty-four-hour” acute spinal cord slice model from fetal rats. Journal of Neuroscience Methods 141, 2005, 309320). Briefly, cells were incubated with Rhodamine-123 ([…]) at 37° C. for 20 min. Rhodamine-123 was dissolved at 5 mg/ml in ethanol. For measurements of the membrane potential ψ, cells loaded with Rhodamine-123 were excited at 480 nm and emission was monitored at 565 nm. The lipophilic cation Rhodamine-123 accumulates in mitochondria where its fluorescence intensity is quenched at high concentrations (Chen, 1988; Scaduto and Grotyohann, 1999). A depolarizing change of ψ is indicated by an increase in the intensity of fluorescence in response to dequenching of the dye after release from mitochondria (Emaus et al., 1986; Duchen, 1992, 2000). Thus we refer to the relative change in ψ as the percentage change in Rhodamine-123 fluorescence (Schuchmann et al., 2000).

G361 cells = assay: Autophagy-related assay employing WIPI-staining; type: cell-based, human; settings: 0.25, 0.5, 1.0 or 2.0 μM tested; FIG. 7
Description: The presence of autophagy is quantified by a polyclonal hWIPI-1 antiserum, which was generated by immunizing rabbits (Charles River) with two synthetic peptides representing C-terminal regions in hWIPI-1 (363nkendlrpslp373, 407lrgevipehefatgpv422) and used at a dilution of 1:5000 in ECLWestern blotting detections (Amersham), and at 1:250 for indirect immunofluorescent stainings.
For these stainings, cells were fixed in 3.7% paraformaldehyde (15 min, RT) and analysed by confocal microscopy (see below). To visualize endogenous hWIPI-1 in G361 cells consecutive incubations were conducted using C-terminal hWIPI-1 antiserum at 1:250 (30 min, RT) and Alexa 546 or Alexa 488 labelled goat anti-rabbit IgG (Molecular Probes) at 1:500 (30 min, RT) in PBS/0.1% Tween (blocking/permeabilization: PBS/0.1% Tween/1% BSA, 30 min RT; washing: PBS/0.1% Tween). For nuclear staining, TO-PRO-3 (Molecular Probes) was used at 1:1000. Finally, cells were mounted in Vectashield Mounting Medium (Vector Laboratories) and kept in the dark (41C). Confocal laser scanning microscopy was conducted using a LSM510 microscope (Zeiss) and a 63— 1.4 DIC Plan-Apochromat oil-immersion objective. GFP and Alexa 488 were excited at 488 nm with the internal argon-ion laser. Alexa 546 and TO-PRO-3, respectively, were excited at 543 and 633 nm with helium-neon lasers. […]

β-amyloid plaques = assay: In vivo assay of β-amyloid plaque formation in a mouse model of Alzheimer's disease (APPPS mice)
Description: A quite aggressive model for Alzheimer's disease is a double transgenic mouse line expressing mutated human amyloid precursor protein (APP) and presinilin-1 (PS). Between months 4 and 5 a maximal additional increase of the plaque load of 35-40% can be expected (exponential fit, FIG. 9).
Dutasteride was administered orally every day after animals became 4 months old, for 30 days at a maximum concentration of 2 mg/day.
Technically, images were recorded from whole brain sections (Olympus Fluorescence microscope AX70, Digital camera Casio QV4000; resolution 2240×1680 Pixel, with constant overall intensity in all images) A software-assisted procedure was then used to quantify overall areas of NT12 stain (anti-β-amyloid stain) (plaque area), and NT12 stain volumes in these areas by defining thresholds and relating them to overall proportions of respective slices (plaque volume).

Kv1.5+Kvβ2.1 = biological target: T1, Kv1.5+Kvβ2.1 (Homo sapiens, UniProt Q13303); assay: K+ channel electrophysiology, inside-out patches of transfected Xenopus oocytes; type: cell-based; settings: 1 μM Finasteride; Xenopus oocytes with Kv1.5 and Kvβ2.1, inside-out patches, FIG. 5
T1 construct: expressed in transfected cells; host or cells: Xenopus oocytes
T1 sequence (Q13303 whole entry): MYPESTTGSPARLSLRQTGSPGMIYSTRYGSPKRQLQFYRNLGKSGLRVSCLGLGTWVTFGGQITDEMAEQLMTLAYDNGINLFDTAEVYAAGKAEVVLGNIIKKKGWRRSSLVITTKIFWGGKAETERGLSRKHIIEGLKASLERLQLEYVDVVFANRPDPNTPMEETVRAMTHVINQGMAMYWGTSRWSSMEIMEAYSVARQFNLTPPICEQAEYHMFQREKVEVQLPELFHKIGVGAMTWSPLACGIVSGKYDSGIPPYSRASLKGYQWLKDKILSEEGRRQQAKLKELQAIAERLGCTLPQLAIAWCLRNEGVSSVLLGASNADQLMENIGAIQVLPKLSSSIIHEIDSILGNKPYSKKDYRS
T1 sequence (P22460 whole entry partner): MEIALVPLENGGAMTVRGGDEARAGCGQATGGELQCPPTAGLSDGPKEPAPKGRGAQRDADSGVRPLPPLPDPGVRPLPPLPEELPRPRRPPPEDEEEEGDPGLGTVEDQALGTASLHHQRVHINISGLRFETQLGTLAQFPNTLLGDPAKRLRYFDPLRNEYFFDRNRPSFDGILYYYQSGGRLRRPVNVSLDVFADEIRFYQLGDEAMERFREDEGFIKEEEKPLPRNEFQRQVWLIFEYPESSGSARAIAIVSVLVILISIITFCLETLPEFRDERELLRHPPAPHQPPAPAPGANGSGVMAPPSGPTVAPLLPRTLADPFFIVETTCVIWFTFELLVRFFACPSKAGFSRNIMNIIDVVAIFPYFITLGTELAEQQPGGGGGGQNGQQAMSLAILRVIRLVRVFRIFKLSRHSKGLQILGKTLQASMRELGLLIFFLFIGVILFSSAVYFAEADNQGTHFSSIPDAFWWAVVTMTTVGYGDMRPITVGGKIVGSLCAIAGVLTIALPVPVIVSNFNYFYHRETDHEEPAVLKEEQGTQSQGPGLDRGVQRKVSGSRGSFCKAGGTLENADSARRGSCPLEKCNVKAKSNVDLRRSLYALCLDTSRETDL
Description: Xenopus oocytes were transfected with various subunit combinations of potassium channels, like Kv1.5+Kvβ2.1. Subsequently activation curves using inside-out patches (external: 2 mM K^+, internal: 96 mM K^+) were measured, they represent IV-curves using standard internal buffer solution (HK+), which were recorded in the presence and absence of 1 μM Finasteride. Corresponding plots of G/Gmax versus the membrane potential were used to evaluate related effects.

[5] = Mus musculus, Neuron; read-out: EC50 of neuroprotective effect, excitotoxic paradigm (100 μM NMDA)
[6] = Mus musculus, Neuron; read-out: EC50 of neuroprotective effect, β-amyloid toxicity (10 μM Aβ 1-40)
[7] = oral, 30 days, months 4 to 5, plaque area or plaque volume, order not stated

Compound	pEC50 [1]	neuroprotective effect compared between compounds [1]	pEC50 [2, 5]	pEC50 [3, 6]	pEC50 ([2]; Mus musculus, Neuron, read-out: EC50 of neuroprotective effect, excitotoxic paradigm (100 μM NMDA))	pEC50 ([3]; Mus musculus, Neuron, read-out: EC50 of neuroprotective effect, β-amyloid toxicity (10 μM Aβ 1-40))	inhibition of release of Rhodamine-123 from mitochondria after opening of the MPTP [4]	inhibition of MPTP-formation and opening during ischemic conditions ([4]; neural derivatives of embryonic stem cells)	enhancement of autophagy in surviving G361 cells (G361 cells)	overall reduction of plaque load versus non-treated controls, first value of 'respectively' (β-amyloid plaques; [7]) [%]	overall reduction of plaque load versus non-treated controls, second value of 'respectively' (β-amyloid plaques; [7]) [%]	load of β-amyloid plaques (NT12 stain) in treated versus non-treated group (β-amyloid plaques; oral, daily for 30 days from month 4, max 2 mg/day, cortical slices, FIG. 8)	reduction of the plaque load relative to the increase expected between months 4 and 5 (β-amyloid plaques; related to expected increase of 35-40%)	protection against neuronal death induced by chemical ischemia ([1]; 100 nM-1 μM present during the ischemic insult, FIG. 2)	surviving rate of neurons after chemical ischemia ([1]; 1 μM, control cells 4.8±3.4%) [%]	concentration at which the neuroprotective effect peaks ([1]; dose response, FIG. 2)	shift of the IV-curve (G/Gmax versus membrane potential) (Kv1.5+Kvβ2.1)
CC12CCC3C(CC[C@H]4NC(=O)CCC34C)C1CCC2C(=O)NCCN (stereo partly drawn) [AEOAA, 4α,6α-dimethyl-2-oxo-hexadecahydro-indeno[5,4-f]quinoline-7-carboxylic-(2-amino-ethyl)-amide hydrochloride]	5.30	considerably less active	5.30	5.40													
CC12CCC3C(CC[C@H]4NC(=O)CCC34C)C1CCC2C(=O)O (stereo partly drawn) [COAAA, 4α,6α-di methyl-2-oxo-hexadecahydro-indeno[5,4-f]quinoline-7-carboxylic-acid]	6.00	nearly as efficacious	5.30	5.70													
C[C@]12C=CC(=O)N[C@@H]1CC[C@@H]1[C@@H]2CC[C@]2(C)[C@@H](C(=O)Nc3cc(C(F)(F)F)ccc3C(F)(F)F)CC[C@@H]12 [Dutasteride, 5α,17β-N-[2,5-bis(trifluoromethyl)phenyl]-3-oxo-4-azaandrost-1-ene-17-carboxamide]	6.52	comparable and strongest			5.82	7.00	dose-dependent	marked and significant inhibition	dose-dependent effect	12	13	significantly lower	30-32.5%				
CC(C)(C)NC(=O)[C@H]1CC[C@H]2[C@@H]3CC[C@H]4NC(=O)C=C[C@]4(C)[C@H]3CC[C@]12C [Finasteride, 17β-(N-tert-butylcarbamoyl)-4-aza-5α-androst-1-en-3-one]	6.52	comparable and strongest	5.70	7.00			dose-dependent		dose-dependent effect					substantial protection	72.1±4.4	about 1 μM	small shift of the IV-curve towards more negative potential

Source: patent publication US7998970B2, “Use of finasteride, dutasteride and related compounds for the prevention or treatment of neurologically-associated disorders” (ProteoSys AG, priority 2004, dated 2011)
